Test [1] can be described thus: Suppression of Phenylbenzoquinone Irritant-Induced Writhing (PBQ). The format is in vivo, Carworth Farms CF-1 mice. Conditions: subcutaneously, mouse; for Analgesic Activity % Protection, PBQ: at 56 mg./kg.; for ED50: sc, PBQ-induced writhing, read-out: Analgesic Activity ED50, PBQ. The procedure: Suppression of Phenylbenzoquinone Irritant-Induced Writhing
Groups of 5 Carworth Farms CF-1 mice are pretreated subcutaneously or orally with saline, morphine, codeine or the test compound. Twenty minutes (if treated subcutaneously) or fifty minutes (if treated orally) later, each group is treated with intraperitoneal injection of phenylbenzoquinone, an irritant known to produce abdominal contractions. The mice are observed for 5 minutes for the presence or absence of writhing starting 5 minutes after the injection of the irritant. MPE50 's of the drug pretreatments in blocking writhing are ascertained.
(§1) Results of the above tests are recorded as percent maximum possible effect (%MPE). The %MPE of each group is statistically compared to the %MPE of the standard and the predrug control values. The %MPE is calculated as follows: [formula]
(§2) The following abbreviations are used in the Tables: PBQ=phenylbenzoquinone-induced writhing; TF=tail flick; HP=hot plate; RTC=rat tail clamp; and FJ=flinch jump.
(§3) Single values in the tables are ED50 's. A number followed by a second number in parentheses reports the % protection observed at a given dose. Thus, 31(56) indicates 31% protection at a dose of 56 mg./kg. of body weight.
For orientation: In writhing tests, fewer writhes than in controls are read as antinociception.

A further test can be described thus: "Flinch-Jump" Test (FJ). The test is classed as in vivo, male albino rats, Charles River (Sprague-Dawley) CD strain. The note with it: sc; subcutaneously; rat flinch jump; read-out: Analgesic Activity ED50, FJ.
Excerpt: A modification of the flinch-jump procedure of Tenen, Psychopharmacologia, 12, 278-285 (1968) is used for determining pain thresholds. Male albino rats (175-200 g.) of the Charles River (Sprague-Dawley) CD strain are used. Prior to receiving the drug, the feet of each rat are dipped into a 20% glycerol/saline solution. The animals are then placed in a chamber and presented with a series of 1-second shocks to the feet which are delivered in increasing intensity at 30-second intervals. These intensities are 0.26, 0.39, 0.52, 0.78, 1.05, 1.31, 1.58, 1.86, 2.13, 2.42, 2.72 and 3.04 mA. Each animal's behavior is rated for the presence of (a) flinch, (b) squeak and (c) jump or rapid forward movement at shock onset. Single upward series of shock intensities are presented to each rat just prior to, and at 0.5, 2, 4 and 24 hours subsequent to drug treatment.
as §1, §2, §3

Test [2] is described as follows: Mouse Tail Flick Analgesic Testing (TF). The test is classed as in vivo, mice. The note with it: for ED50: sc; for ED50 / Analgesic Activity % Protection, TF: subcutaneously, mouse tail flick; for Analgesic Activity % Protection, TF: at 10 mg./kg.
Excerpt: (b) Mouse Tail Flick Analgesic Testing
Tail flick testing in mice is modified after D'Amour and Smith, J. Pharmacol. Exp. Ther., 72, 74-79 (1941) using controlled high intensity heat applied to the tail. Each mouse is placed in a snug-fitting metal cylinder, with the tail protruding through one end. This cylinder is arranged so that the tail lies flat over a concealed heat lamp. At the onset of testing an aluminum flag over the lamp is drawn back, allowing the light beam to pass through the slit and focus onto the end of the tail. A timer is simultaneously activated. The latency of a sudden flick of the tail is ascertained. Untreated mice usually react within 3-4 seconds after exposure to the lamp. The end point for protection is 10 seconds. Each mouse is tested at 0.5 and 2 hours after treatment with morphine and the test compound. Morphine has an MPE50 of 3.2-5.6 mg./kg. (s.c.).
as §1, §2, §3

A short description of test [3]: Haffner Tail Pinch Procedure (rat tail clamp, RTC). The format is in vivo, male albino rats, Charles River (Sprague-Dawley) CD strain. The note with it: for ED50: sc, subcutaneously, rat tail clamp, read-out: Analgesic Activity ED50, RTC. The procedure:
Effect on the Haffner Tail Pinch Procedure
A modification of the procedure of Haffner, Experimentelle Prufung Schmerzstillender. Deutch Med. Wschr., 55, 731-732 (1929) is used to ascertain the effects of the test compound on aggressive attacking responses elicited by a stimulus pinching the tail. Male albino rats (50-60 g.) of the Charles River (Sprague-Dawley) CD strain are used. Prior to drug treatment, and again at 0.5, 1, 2 and 3 hours after treatment, a Johns Hopkins 2.5-inch "bulldog" clamp is clamped onto the root of the rat's tail. The endpoint at each trial is clear attacking and biting behavior directed toward the offending stimulus, with the latency for attack recorded in seconds. The clamp is removed in 30 seconds if attacking has not yet occurred, and the latency of response is recorded as 30 seconds. Morphine is active at 17.8 mg./kg. (i.p.).
as §1, §2, §3

Test [4] is described as follows: Mouse Hot Plate Analgesic Testing (HP). Also noted: key to Analgesic Activity, HP (IA@10): IA: inactive. The test is classed as in vivo, mice. The procedure: (a) Mouse Hot Plate Analgesic Testing
The method used is modified after Woolfe and MacDonald, J. Pharmacol. Exp. Ther., 80, 300-307 (1944). A controlled heat stimulus is applied to the feet of mice on a 1/8-inch thick aluminum plate. A 250 watt reflector infrared heat lamp is placed under the bottom of the aluminum plate. A thermal regulator, connected to thermistors on the plate surface, programs the heat lamp to maintain a constant temperature of 57° C. Each mouse is dropped into a glass cylinder (61/2-inch diameter) resting on the hot plate, and timing is begun when the animal's feet touch the plate. The mouse is observed at 0.5 and 2 hours after treatment with the test compound for the first "flicking" movements of one or both hind feet, or until 10 seconds elapse without such movements. Morphine has an MPE50 =4-5.6 mg./kg. (s.c.).
as §1, §2, §3

The mark [5] stands for this setting: subcutaneously, at 10 mg./kg., mouse hot plate.

For `CC(CCCc1ccccc1)Oc1ccc([C@H]2CCC[C@H](O)C2)c(O)c1` (stereo partly drawn), in test [1], the “Analgesic Activity % Protection, PBQ” value amounted to 28%.
The same measure, in the same setting: to `CCCCCCC(C)(C)c1ccc([C@H]2CC[C@H](O)C2)c(O)c1` (relative stereo) belongs 36%.
For the compound `Oc1cc(OCCCCc2ccccc2)ccc1[C@H]1CCC[C@H](O)C1` (relative stereo), the ED50 in test [1] was no less than 56 mg/kg.
The same measure, in the same setting: in the case of `CCCCCCC(C)(C)c1ccc([C@]2(C)CCC[C@H](O)C2)c(O)c1` (relative stereo) [Z-3-[4-(1,1-dimethylheptyl)-2-hydroxyphenyl]-3-methylcyclohexanol] it was no less than 56 mg/kg; in that of `CCCCCCC(C)(C)c1ccc([C@H]2C[C@@H](O)CC[C@@H]2C)c(O)c1` (relative stereo) [cis,trans-3-[4-(1,1-dimethylheptyl)-2-hydroxyphenyl]-4-methylcyclohexanol], no more than 1 mg/kg.
`Oc1cc(OCCCCc2ccccc2)ccc1[C@@H]1CCC[C@H](O)C1` (relative stereo) [cis-3-[2-Hydroxy-4-(4-phenylbutyloxy)phenyl]cyclohexanol]: the ED50 in test [1] is no more than 56 mg/kg.
On the same count and under the same terms, to `CCCCCCC(C)(C)c1ccc([C@@H]2CC(=O)CC[C@@H]2C)c(O)c1` (relative stereo) [cis-3-[4-(1,1-Dimethylheptyl)-2-hydroxyphenyl]-4-methylcyclohexanone] belongs 1.51 mg/kg.
With `CCCCCCC(C)(C)c1ccc([C@@H]2CC[C@H](O)C2)c(O)c1` (relative stereo) [cis-3-[4-(1,1-Dimethylheptyl)-2-hydroxyphenyl]cyclopentanol], the “Analgesic Activity % Protection, PBQ” value in test [1] turned out to be 57%.
`CCCCCCC(C)(C)c1ccc([C@@H]2CCC[C@H](O)C2)c(O)c1` (relative stereo) [cis-3-[4-(1,1-dimethylheptyl) 2-hydroxyphenyl]cyclohexanol]: the median effective dose (ED50) in test [1] amounted to 1.1 mg/kg; in “"Flinch-Jump" Test (FJ)” it was 4 mg/kg; in test [2], 6.8 mg/kg; in test [3], 4.7 mg/kg.
For `CCCCCCC(C)(C)c1ccc([C@@H]2CCCC[C@H](O)C2)c(O)c1` (relative stereo) [cis-3-[4-(1,1-dimethylheptyl)-2-hydroxyphenyl]cycloheptanol], the median effective dose (ED50) in test [1] was determined as 1.5 mg/kg; in “"Flinch-Jump" Test (FJ)”, 3.5 mg/kg; in test [3], 7.7 mg/kg. Also, the “Analgesic Activity % Protection, TF” value in test [2] is 32%. For the same compound, the “Analgesic Activity % Protection, HP” value in test [4] (setting [5]) is 27%.
With `CCCCCCC(C)(C)c1ccc([C@@H]2C[C@@H](O)CC[C@H]2C)c(O)c1` (relative stereo) [trans,trans-3-[4-(1,1-dimethylheptyl)-2-hydroxyphenyl]-4-methylcyclohexanol], the ED50 in test [1] was 0.5 mg/kg.
For `CCCCCCC(C)(C)c1ccc([C@H]2CCC[C@H](O)C2)c(O)c1` (relative stereo) [trans-3-[4-(1,1-Dimethylheptyl)-2-hydroxyphenyl]cyclohexanol], the ED50 in test [1] worked out at 3.8 mg/kg.
As to `CCCCCCC(C)(C)c1ccc([C@H]2CCCC[C@H](O)C2)c(O)c1` (relative stereo) [trans-3-[4-(1,1-dimethylheptyl)-2-hydroxyphenyl]cycloheptanol], the ED50 in test [1] amounted to 1.53 mg/kg; in the test “"Flinch-Jump" Test (FJ)”, 5.4 mg/kg; in test [3], 5.6 mg/kg. In test [2], the “Analgesic Activity % Protection, TF” value is 65%. Besides, the “Analgesic Activity, HP (IA@10)” value in test [4] (setting [5]) is given as “IA”.
Regarding `CCCCCCC(C)(C)c1ccc(C2CCCC(=O)C2)c(OCc2ccccc2)c1` (stereo not drawn) [3-[2-Benzyloxy-4-(1,1-dimethylheptyl)phenyl]cyclohexanone], in test [1], the “Analgesic Activity % Protection, PBQ” value turned out to be 20%.
For `CC(CCCc1ccccc1)Oc1ccc(C2CCCC(=O)C2)c(O)c1` (stereo not drawn) [3-[2-hydroxy-4-(2-(5-phenylpentyloxy))phenyl]cyclohexanone], the ED50 in test [1] is no less than 56 mg/kg.
On to `CCCCCCC(C)(C)c1ccc(C2(C)CCCC(=O)C2)c(O)c1` (stereo not drawn) [3-[4-(1,1-Dimethylheptyl)-2-hydroxyphenyl]-3-methylcyclohexanone], for which the “Analgesic Activity % Protection, PBQ” value in test [1] came to 31%.
With `CCCCCCC(C)(C)c1ccc(C2CCCCC(=O)C2)c(O)c1` (stereo not drawn) [3-[4-(1,1-Dimethylheptyl)-2-hydroxyphenyl]cycloheptanone], the median effective dose (ED50) in test [1] is 2.15 mg/kg; in “"Flinch-Jump" Test (FJ)” it was 10.8 mg/kg; in test [3], 4.4 mg/kg. The “Analgesic Activity % Protection, TF” value in test [2] came to 58%. Moreover, the “Analgesic Activity % Protection, HP” value in test [4] (setting [5]) is reported as 33%.
With `CCCCCCC(C)(C)c1ccc(C2=CC(=O)CCC2)c(O)c1` [3-[4-(1,1-Dimethylheptyl)-2-hydroxyphenyl]cyclohex-2-enone], the “Analgesic Activity % Protection, PBQ” value in test [1] is listed as 20%.
Turning to `CCCCCCC(C)(C)c1ccc(C2CCCC(=O)C2)c(O)c1` (stereo not drawn) [3-[4-(1,1-Dimethylheptyl)-2-hydroxyphenyl]cyclohexanone], the results for the 50% effective dose (ED50) in test [1] and in test [2] were 4.5 mg/kg and 15.3 mg/kg, respectively.
On to `CCCCCCC(C)(C)c1ccc(C2CCC(=O)C2)c(O)c1` (stereo not drawn) [3-[4-(1,1-Dimethylheptyl)-2-hydroxyphenyl]cyclopentanone], for which, in test [1], the “Analgesic Activity % Protection, PBQ” value stood at 15%.
Turning to `CN1CC[C@]23c4c5ccc(O)c4O[C@H]2[C@@H](O)C=C[C@H]3[C@H]1C5` [Morphine, reference compound], the “MPE50, tail flick” value in test [2] (s.c., mouse) fell in the range of 3.2 to 5.6 mg/kg. The “MPE50, hot plate” value in test [4] (s.c., mouse) was in the range of 4 to 5.6 mg/kg. In test [3] (17.8 mg./kg. (i.p.), rat), the “activity in Haffner tail pinch” value is “active”.
`CC(CCCc1ccccc1)Oc1ccc([C@@H]2CCC[C@H](O)C2)c(O)c1` (stereo partly drawn) [cis-3-[2-hydroxy-4-(2-(5-phenylpentyloxy))phenyl]cyclohexanol]: the median effective dose (ED50) in test [1] stood at 38 mg/kg.
As for `O=C1CCCC(c2ccc(O)cc2O)C1` (stereo not drawn) [x=1; A+B=oxo; R2=H; R3=H; Z=O; W=H, 3-(2,4-Dihydroxyphenyl)cyclohexanone], the “Analgesic Activity % Protection, PBQ” value in test [1] is recorded as 32%.
Still for that read-out and setting: to `COC12CCCC(C1)c1ccc(O)cc1O2` (stereo not drawn) [x=1; A+B=oxo^(c); R2=H; R3=H; Z=O; W=H, 3-(2,4-Dihydroxyphenyl)cyclohexanone Methyl Ketal] belongs 43%.

In general, ED50 refers to the dose at which the effect has come halfway, by size or by number of responders.

(Values after patent US4391827A, “3-(2-Hydroxy-4-(substituted)phenyl)-cycloalkanone and cycloalkanol analgesic agents and intermediates therefor” (priority 1981, dated 1983).)
